From publication PMC8352664 (The Journal of Biological Chemistry, 2021) come the findings set out here.

The experiment relates to CD8^+ T cells in PBMCs from convalescent COVID-19 patients. It counts as cell-based, human.

Consider YLQPSTFLL [S^269–277R273S], for which the “HLA-A2^S269–277+CD8+ T cell cross-reactivity between WT S^269–277 and variant peptide” value is “no HLA-A2^S269–277+CD8^+ T cell cross-reactivity”.
